From patent publication US9540381B2, “Anti-angiogenesis compound, intermediate and use thereof” (Guangzhou KangRui Biological Pharmaceutical Technology Co., …, priority 2013, dated 2017)

Experiments:
[1] = tested on: vessel development of the FLK1-GFP transgenic danio rerio; assay: Inhibition test on vascular development of Danio rerio; assay type: in vivo; conditions: for inhibition at 0.1 µM / inhibition at 1 µM / inhibition at 5 µM / inhibition at 10 µM / inhibition at 20 µM / inhibition at 40 µM / inhibition at 100 µM: Danio rerio, after 24 hours, n = 5, read-out: inhibition rate on the development of vertebral vessel; for inhibition at 0.1 µM: 100 nM; for inhibition effect on the vessel development of the danio rerio (in words): Table 1 and FIG. 7
Description: Female fish can spawn 200-300 […], and the fertilization and embryonic development processes are conducted in vitro. They can grow up within 24 hours, and the embryo is transparent, which is suitable for observing the change of intracorporal organs and tissues. These characteristics make the danio rerio become to be one of the five fish laboratory animals accepted by the international organization for standardization. Currently, the danio rerio is widely used in human disease studies, especially used in cardiovascular system studies. The danio rerio can be used for screening the influence of small molecular compounds on angiogenesis. Experimental Method: This experiment uses FLK1-GFP transgenic danio rerio as an animal model which is generally used for screening the influence of compounds on angiogenesis. Vessel can be in vivo observed under fluorescence microscope (Suk-Won Jin, 2005, Development). The selected embryo of the postnatal FLK1-GFP transgenic danio rerio was placed into a culture dish and incubated for 3-5 days in an incubator at 28° C. […] Examine the developmental condition of the vertebral vessel after 24 hours and take photo by use of the fluorescence microscope.

VEGFR2 = target: T1, VEGFR2 (Homo sapiens, UniProt P35968); assay: In vitro inhibition test on VEGFR2 in HUVECs (anti-phosphorylated VEGFR2 blot); assay type: cell-based; conditions: 10 nM, 100 nM and 1 μM, 50 ng/ml VEGF
T1 construct: endogenous in cells; host or cells: primary HUVECs P3-P5
T1 sequence (P35968 20-1356): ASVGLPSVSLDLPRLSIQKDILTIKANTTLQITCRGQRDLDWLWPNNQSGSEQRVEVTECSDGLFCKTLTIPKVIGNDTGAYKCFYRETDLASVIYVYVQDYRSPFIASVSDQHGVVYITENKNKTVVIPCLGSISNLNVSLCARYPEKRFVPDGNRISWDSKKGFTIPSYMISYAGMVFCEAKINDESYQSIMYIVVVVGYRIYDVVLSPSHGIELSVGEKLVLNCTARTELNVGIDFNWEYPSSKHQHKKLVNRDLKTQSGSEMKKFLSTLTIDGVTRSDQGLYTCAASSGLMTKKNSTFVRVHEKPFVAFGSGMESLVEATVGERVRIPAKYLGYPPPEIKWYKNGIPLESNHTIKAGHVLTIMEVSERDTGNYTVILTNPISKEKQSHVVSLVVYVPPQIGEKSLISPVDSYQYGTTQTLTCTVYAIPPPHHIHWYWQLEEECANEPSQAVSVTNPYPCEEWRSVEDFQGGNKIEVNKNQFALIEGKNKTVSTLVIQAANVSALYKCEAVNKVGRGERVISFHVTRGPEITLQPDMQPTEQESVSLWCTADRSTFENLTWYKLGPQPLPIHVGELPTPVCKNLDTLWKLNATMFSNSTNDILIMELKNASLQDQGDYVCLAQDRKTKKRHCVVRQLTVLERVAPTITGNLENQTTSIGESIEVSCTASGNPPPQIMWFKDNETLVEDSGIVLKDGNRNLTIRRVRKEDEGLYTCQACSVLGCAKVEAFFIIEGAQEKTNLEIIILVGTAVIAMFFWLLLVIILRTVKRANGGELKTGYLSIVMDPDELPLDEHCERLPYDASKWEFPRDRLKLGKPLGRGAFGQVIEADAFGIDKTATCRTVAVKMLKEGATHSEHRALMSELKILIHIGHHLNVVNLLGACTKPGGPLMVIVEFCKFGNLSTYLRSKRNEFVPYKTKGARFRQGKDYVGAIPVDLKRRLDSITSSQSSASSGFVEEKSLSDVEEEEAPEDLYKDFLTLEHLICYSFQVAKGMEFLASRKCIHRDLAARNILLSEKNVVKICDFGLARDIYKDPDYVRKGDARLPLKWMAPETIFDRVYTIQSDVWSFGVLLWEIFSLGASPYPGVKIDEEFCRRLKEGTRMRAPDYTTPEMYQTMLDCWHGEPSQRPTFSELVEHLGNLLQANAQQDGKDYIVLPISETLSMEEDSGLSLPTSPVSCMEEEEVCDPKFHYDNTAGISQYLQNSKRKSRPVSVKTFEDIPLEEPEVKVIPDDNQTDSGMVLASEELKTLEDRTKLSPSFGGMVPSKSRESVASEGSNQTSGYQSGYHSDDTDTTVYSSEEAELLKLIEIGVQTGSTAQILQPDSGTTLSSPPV
Description: The experimental method of detecting the inhibition of the compounds of the present invention on VEGFR2 kinase is as follows:
1) The primary cultured human umbilical vein endothelial cells (HUVECs) P3-P5 were transferred to 6 well plate, 2×10^5 cells per well;
2) compounds 2-1, 2-2 and 2-4 of the present invention (the concentrations are 10 nM, 100 nM and 1 μM for each compound) were added when the cells grow to 70-80%, VEGF was a control, incubation for 30 min;
3) 50 ng/ml VEGF (cell Signaling company, US) was added, stimulating for 10 min;
4) nondenature lysis buffer was added to terminate the reaction, and cell lysis buffer was collected to carry out protein quantification;
5) SDS-PAGE electrophoresis, transfer to nitrocellulose membrane, the membrane was cut off and sealed in phosphate tween buffer, TTBS buffer (Tris-buffered saline 0.01% Tween 20, cell Signaling company, US, PH8.0) formulated from 5% skimmed milk for 2 hours; 6) wash the membrane, seal at 4° C. overnight by use of an anti-phosphorylated VEGFR2 antibody (1:1000 dilution, cell Signaling company, US); 7) on the second day after washing membrane, horse radish peroxidase marked goat anti-rabbit second antibody (cell Signaling company, US) was incubated with the membrane at room temperature for 1 hour; 8) develop with chemiluminescence kit (Millipore company) after washing membrane, and take photos.

O=C(Nc1cccc(C(F)(F)F)c1)c1cccc2nc(Oc3ncnc4c3CCNC4)ccc12 [Compound 2-3]
inhibition at 0.1 µM [1]: 0% | inhibition at 1 µM [1]: 0% | inhibition at 5 µM [1]: 0% | inhibition at 10 µM [1]: 0% | inhibition at 20 µM [1]: 0% | inhibition at 40 µM [1]: 5% | inhibition at 100 µM [1]: 20% | inhibition effect on the vessel development of the danio rerio (in words) [1]: have inhibition effect on the vessel development of the danio rerio

CNCc1cc(Oc2ccc3c(C(=O)Nc4cccc(C(F)(F)F)c4)cccc3n2)ncn1 [Compound 2-4]
inhibition at 0.1 µM [1]: 0% | inhibition at 1 µM [1]: 0% | inhibition at 5 µM [1]: 0% | inhibition at 10 µM [1]: 0% | inhibition at 20 µM [1]: 5% | inhibition at 40 µM [1]: 25% | inhibition at 100 µM [1]: 70% | inhibition effect on the vessel development of the danio rerio (in words) [1]: have inhibition effect on the vessel development of the danio rerio | inhibition of VEGFR2 (in words, FIG. 8) (VEGFR2): can inhibit VEGFR2

O=C(Nc1cccc(C(F)(F)F)c1)c1cccc2nc(Oc3ncnc4c3CNC4)ccc12 [Compound 2-5]
inhibition at 0.1 µM [1]: 0% | inhibition at 1 µM [1]: 0% | inhibition at 5 µM [1]: 10% | inhibition at 10 µM [1]: 40% | inhibition at 20 µM [1]: 80% | inhibition at 40 µM [1]: 100% | inhibition at 100 µM [1]: 100% | inhibition effect on the vessel development of the danio rerio (in words) [1]: have inhibition effect on the vessel development of the danio rerio

Cc1ccc(Nc2nccc(N(C)c3ccc4c(C)n(C)nc4c3)n2)cc1S(N)(=O)=O [Compound 130B, Pazopanib, reference compound]
inhibition at 0.1 µM [1]: 0% | inhibition at 1 µM [1]: 0% | inhibition at 5 µM [1]: 85% | inhibition at 10 µM [1]: 90% | inhibition at 20 µM [1]: 95% | inhibition at 40 µM [1]: 95% | inhibition at 100 µM [1]: 100%
